Results from patent US8481489B2, “GH secretagogues and uses thereof” (Theratechnologies Inc., priority 2003, dated 2013).
Several values for one entry are separate records, joined by “and”; a condition that tells them apart may be missing. Equal entries are not always repeated. Marks after values point to notes of the source that are not given here.

Experiments:
[1] = tested on: type II diabetic patients; experiment: Glucose control in type II diabetic patients; type: in vivo, human; details: for glycosylated hemoglobin (HbA1c) levels: Week 12
Procedure: A double-blind placebo-controlled study was conducted in 53 type II diabetic patients (age=61±7 [SD]; 34% female) on stable antidiabetic medication (26% on insulin). Patients were randomized to parallel groups to receive daily subcutaneous administration of a placebo, 1 mg or 2 mg TH9507, respectively.
Clinically relevant changes in antidiabetic medications occurred with a similar incidence in the three treatment groups.

[2] = tested on: IGF-1 and IGFBP-3; experiment: Serum IGF-1 and IGFBP-3 (RIA), HIV lipodystrophy study; details: change from baseline, Week 12, mean (SD)
Procedure: (§2) Design: Randomized, placebo-controlled, multi-center, dose ranging (placebo, 1 mg or 2 mg SC QD), parallel group, 12-week study
At the baseline visit, anthropometric measurements were obtained. […] Biochemical parameters including insulin-like growth factor-I, glucose, insulin, lipid profile (cholesterol, HDL, LDL, triglyceride, non HDL and the ratio of cholesterol:HDL), free fatty acids, HbA1C, IGFBP-3, and bone markers (serum osteocalcin and NTX-1), CD4, viral load, and a pregnancy test for female subjects were determined in the fasting state. In addition, insulin and glucose response to a 75 gram standard glucose challenge were assessed and a quality of life questionnaire was administered.
Clinical laboratory testing was performed by a central lab. Serum IGF-1 was measured after acid-ethanol extraction using the Esoterix RIA kit (Esoterix Inc., Calabasas Hill, Calif.), with a sensitivity of 10 ng/mL. Intra- and inter-assay coefficients of variation were 4.6-20% and 9-10%, respectively. Serum IGFBP-3 was measured using the Esoterix RIA kit (Esoterix Inc., Calabasas Hill, Calif.) with a sensitivity of 0.3 mg/mL. Intra- and inter-assay coefficients of variation were 5.1-13% and 5.5-17%, respectively. HDL, LDL, total cholesterol, triglycerides and FFA were determined by enzymatic calorimetric assay. Glucose was measured by enzymatric test (Gluco-Quant®, Roche diagnostics, Indianapolis, Ind.). HbA1c was determined by chromatography.
Other endpoints included IGF-I, lipid parameters, glucose and insulin, CD4, viral load, bone markers, and quality of life. A sample size of 20 patients/group was planned to assess a statistically significant change of 10% or more in intra-group analyses. The planned dropout rate was 25% and therefore 60 patients were enrolled into the study. Baseline data are compared between the groups by F-test based on ANOVA for continuous variables and Chi-Square test for categorical variables. Change over time between groups is compared by ANOVA or the Chi-Square test. Where appropriate, data were rank transformed prior to analysis. Changes within each group are determined by t-test. The ITT (intent to treat) population is defined as all subjects who received at least one dose of the study treatment. Descriptive statistics and analyses for all efficacy and safety analyses are performed on the ITT population. End of study, 12 week, data are used to calculate changes in body composition. For biochemical indices, the last observation available is used to calculate change. Imputation for missing data is not performed. For body composition, end of study data are used to calculate change. Interim analyses were not performed. Results are mean (SD) unless otherwise noted. All statistical tests were performed with a two-sided Type I error level of 0.05.

[3] = tested on: HIV-infected patients with abdominal fat accumulation; experiment: Bone turnover markers (osteocalcin, NTX), HIV lipodystrophy study; details: for NTX, Δ / Osteocalcin, Δ: change from baseline, Week 12, mean (SD)
Procedure: as §2
Biochemical parameters including insulin-like growth factor-I, glucose, insulin, lipid profile (cholesterol, HDL, LDL, triglyceride, non HDL and the ratio of cholesterol:HDL), free fatty acids, HbA1C, IGFBP-3, and bone markers (serum osteocalcin and NTX-1), CD4, viral load, and a pregnancy test for female subjects were determined in the fasting state.
Clinical laboratory testing was performed by a central lab. […] NTX (N-terminal telopeptide of type I collagen; a bone resorption marker) was measured by ELISA using a commercially available kit (Osteomark™, Ostex International Inc., Seattle, Wash.). Osteocalcin was measured using a commercially available enzymatic immunoassay kit (Metra™ osteocalcin, Quidel Corporation, San Diego, Calif.). CD4 and viral load were performed by the individual site labs by routine methodology.

[4] = Safety profile in the two vigilance studies; type: in vivo, human
[5] = in vivo
[6] = tested on: HIV-infected patients with abdominal fat accumulation; experiment: Body composition by DEXA, HIV lipodystrophy study; details: for Fat Mass, Δ / Lean Body Mass, Δ / Limb Fat, Δ / Trunk Fat, Δ: change from baseline, Week 12, mean (SD)
Procedure: as §2
Patients: 61 HIV-infected patients (BMI 28±3 [SD] kg/m^2, 28% diabetic or glucose intolerant) with increased waist circumference (102 cm±8 [SD]) and waist/hip (1.0±0.1 [SD])
At the baseline visit, anthropometric measurements were obtained. Total body lean and fat mass as well as regional fat mass in the trunk and extremities were assessed by DEXA. Abdominal subcutaneous and visceral fat area and the ratio of VAT to SAT were determined by cross-sectional CT at L4-L5.
Whole body and regional DEXA (dual energy X-ray absorptiometry) and cross-sectional abdominal CT scans were performed at the individual study sites based on previously established protocols and were standardized across sites. Digitized images were sent to a central reading center, St. Lukes Roosevelt Hospital, for analysis by independent experts without knowledge of treatment assignment. Each site was given a procedure manual to follow in obtaining the body composition data and was certified in the proper technique. For the CT scans, parameters were standardized as follows: Tube Voltage=120 kV, Tube Current=250 mA, Exposure=375 mAs, matrix 512×512. DFOV was set to include the entire slice into the field of view. For the DEXA scans total body scans were performed with analysis of lean body mass, total fat mass, and regional fat mass in the trunk and extremities as previously described (16).
Body composition endpoints included trunk fat and trunk to limb fat ratio by DEXA and VAT and VAT:SAT by CT scan. […] Baseline data are compared between the groups by F-test based on ANOVA for continuous variables and Chi-Square test for categorical variables. Change over time between groups is compared by ANOVA or the Chi-Square test. Where appropriate, data were rank transformed prior to analysis. Changes within each group are determined by t-test. The ITT (intent to treat) population is defined as all subjects who received at least one dose of the study treatment. Descriptive statistics and analyses for all efficacy and safety analyses are performed on the ITT population. End of study, 12 week, data are used to calculate changes in body composition. […] Imputation for missing data is not performed. For body composition, end of study data are used to calculate change. […] Results are mean (SD) unless otherwise noted. All statistical tests were performed with a two-sided Type I error level of 0.05.

[7] = TH9507 PK profile, 7-day study in healthy men; type: in vivo, human
Procedure: (§1) The study used a randomized, double-blind, placebo-controlled design and was conducted in healthy men, aged 50 to 60 years old. Subjects (8 per group) were injected S.C. once a day for 7 consecutive days with placebo, 0.5, 1 or 2 mg of TH9507. Circulating IGF-1 levels were measured on Days 1 to 7. The 12 hour GH response and TH9507 PK profile were determined on Day 1 and 7.

[8] = type: in vivo, human; details: 1 or 2 mg SC daily, 8 weeks
Procedure: Eighty seven (87) subjects aged 75 years in average were included in a double-bind, randomized, placebo-controlled study. TH9507 or a placebo was administered at a daily dose of 1 or 2 mg by subcutaneous injection for 8 weeks. Follow-up assessments were conducted for 12 weeks after the end of the treatment period. At week 4, in the middle of the treatment period, subjects received the commercial Canadian influenza vaccine (Vaccine Fluviral® S/F, Shire, Montreal, Canada) containing 15 μg each of A/New Caledonia/20/99, A/Panama/2007/99, B/Victoria/504/2000 antigens.

[9] = tested on: GH secretion; experiment: GH response and other pituitary hormones, 7-day study in healthy men; type: in vivo, human; details: dose dependent between 0.5 and 1 mg, similar at 1 and 2 mg
Procedure: as §1, with “The 12 hour GH response and TH9507 PK profile were determined on Day 1 and 7.” left out

[10] = tested on: type II diabetic patients; details: patients with Type II DM, daily dose up to 2 mg; reference (15); cited from earlier work
[11] = tested on: antigen-specific proliferative T cell response; type: in vivo, human; details: 2 mg SC daily 8 weeks; week 0 to week 20; Panama, New Caledonia, Victoria
[12] = Adverse events, discontinuation and safety laboratory, HIV lipodystrophy study
[13] = tested on: IGF-1; experiment: Circulating IGF-1 levels, 7-day administration in healthy middle-aged men; type: in vivo, human; details: for IGF-1 increase over baseline values / IGF-1 levels reached: 7 days
Procedure: as §1

**Q.** What does the source list for CC/C=C/CC(=O)N[C@@H](Cc1ccc(O)cc1)C(=O)N[C@@H](C)C(=O)N[C@@H](CC(=O)O)C(=O)N[C@@H](C)C(=O)N[C@H](C(=O)N[C@@H](Cc1ccccc1)C(=O)N[C@H](C(=O)N[C@@H](CC(N)=O)C(=O)N[C@@H](CO)C(=O)N[C@@H](Cc1ccc(O)cc1)C(=O)N[C@@H](CCCNC(=N)N)C(=O)N[C@@H](CCCCN)C(=O)N[C@H](C(=O)N[C@@H](CC(C)C)C(=O)NCC(=O)N[C@@H](CCC(N)=O)C(=O)N[C@@H](CC(C)C)C(=O)N[C@@H](CO)C(=O)N[C@@H](C)C(=O)N[C@@H](CCCNC(=N)N)C(=O)N[C@@H](CCCCN)C(=O)N[C@@H](CC(C)C)C(=O)N[C@@H](CC(C)C)C(=O)N[C@@H](CCC(N)=O)C(=O)N[C@@H](CC(=O)O)C(=O)N[C@H](C(=O)N[C@@H](CCSC)C(=O)N[C@@H](CO)C(=O)N[C@@H](CCCNC(=N)N)C(=O)N[C@@H](CCC(N)=O)C(=O)N[C@@H](CCC(N)=O)C(=O)NCC(=O)N[C@@H](CCC(=O)O)C(=O)N[C@@H](CO)C(=O)N[C@@H](CC(N)=O)C(=O)N[C@@H](CCC(N)=O)C(=O)N[C@@H](CCC(=O)O)C(=O)N[C@@H](CCCNC(=N)N)C(=O)NCC(=O)N[C@@H](C)C(=O)N[C@@H](CCCNC(=N)N)C(=O)N[C@@H](C)C(=O)N[C@@H](CCCNC(=N)N)C(=O)N[C@@H](CC(C)C)C(N)=O)[C@@H](C)CC)C(C)C)[C@@H](C)O)[C@@H](C)CC [TH9507, (hexenoyl trans-3)hGRF(1-44)NH2]?
**A.** glycosylated hemoglobin (HbA1c) levels ([1]; 1 mg): a decrease; glycosylated hemoglobin (HbA1c) levels ([1]; 2 mg): no change; insulin relative response to an oral glucose tolerance test, between groups ([1]; placebo, 1 mg, 2 mg, treatment period): No statistically significant differences; IGF-1, Δ ([2]; 1 mg SC QD): 87 (67) ng/mL and 87.5 (66.9)* ng/mL; IGFBP-3, Δ ([2]; 1 mg SC QD): 0.6 (0.7)* Mg/L; IGF-1, Δ ([2]; 2 mg SC QD): 123 (79) ng/mL and 122.6 (79.1)* ng/mL; IGFBP-3, Δ ([2]; 2 mg SC QD): 0.6 (0.5)* Mg/L; NTX, Δ ([3]; 1 mg SC QD): 4.5 (24.9) nMBCE/mM; Osteocalcin, Δ ([3]; 1 mg SC QD): 1.5 (4.8) ng/mL; NTX ([3]; 2 mg SC QD, 12 weeks): no changes; Osteocalcin within group ([3]; 2 mg SC QD, 12 weeks): increased significantly; NTX, Δ ([3]; 2 mg SC QD): −0.5 (27.7) nMBCE/mM; Osteocalcin, Δ ([3]; 2 mg SC QD): 3.0 (2.8)* ng/mL; reactions at the site of injection ([4]; 1 mg, insomnia study, vs placebo): higher incidence; safety profile ([4]; both vigilance studies): comparable to that of the placebo; Anti-TH9507 antibodies [5]: not detected; Blood pressure and heart rate [5]: did not change; Safety laboratory values, including hemoglobin, WBC, LFT's, creatinine [5]: did not differ; Trunk fat change ([6]; 1 mg SC QD, 12 weeks): −4.6%; Fat Mass, Δ ([6]; 1 mg SC QD): −0.4 (1.8) kg; Lean Body Mass, Δ ([6]; 1 mg SC QD): 0.7 (2.0) kg; Limb Fat, Δ ([6]; 1 mg SC QD): 0.1 (0.5) kg; Trunk Fat, Δ ([6]; 1 mg SC QD): −0.5 (1.4) kg; Trunk fat change ([6]; 2 mg SC QD, 12 weeks): −9.2%; Fat Mass, Δ ([6]; 2 mg SC QD): −1.4 (2.0) kg and −1.4 (2.0)* kg; Lean Body Mass, Δ ([6]; 2 mg SC QD): 1.7 (2.3) kg and 1.7 (2.3)* kg; Limb Fat, Δ ([6]; 2 mg SC QD): −0.3 (0.8) kg; Trunk Fat, Δ ([6]; 2 mg SC QD): −1.1 (1.3)* kg; limb fat ([6]; 1 and 2 mg SC QD, 12 weeks): no significant change; Cmax and AUC parameters ([7]; 0.5, 1, 2 mg SC): increased in function of the dose administered; half-life ([7]; male, human, in vivo, SC, healthy men): 2 to 5 h; incidence of adverse events between treatment groups [8]: No major difference; incidence of reactions at the site of injection [8]: dose-related trend; GH response [9]: increased rapidly; overall glycemic control [10]: not shown to aggravate overall glycemic control; mean AUC of antigen-specific proliferative T cell response vs placebo [11]: statistically higher; Musculoskeletal AE's e.g. pain and arthralgias, subjects ([12]; 1 mg): 26%; Musculoskeletal AE's e.g. pain and arthralgias, subjects ([12]; 2 mg): 29%; IGF-1 increase over baseline values ([13]; 0.5 mg SC once a day): 37%; time at which IGF-1 plateau was reached ([13]; 1 mg): 4 days; IGF-1 increase over baseline values ([13]; 1 mg SC once a day): 89%; IGF-1 levels reached ([13]; 1 mg SC once a day): 286 ± 25 ng/mL; time at which IGF-1 plateau was reached ([13]; 2 mg): 6 days; IGF-1 increase over baseline values ([13]; 2 mg SC once a day): 106%; IGF-1 levels reached ([13]; 2 mg SC once a day): 284 ± 55 ng/mL; IGF-1 levels of individual subjects ([13]; none of the subjects greater than this level): ≤ 400 ng/mL
